Reference: patent publication US20090131409A1, “1,4,5,6,7,8-HEXAHYDRO -PYRROLO[2,3-d]AZEPINES AND -IMIDAZO[4,5-d]AZEPINES AS MODULATORS OF NUCLEAR RECEPTOR ACTIVITY” (Wyeth, priority 2007, published 2009)
pEC50: −log10 of the molar value.

Biological target: T1, Gal4/hFXR fusion protein (Homo sapiens, UniProt Q96RI1)
T1 sequence (Q96RI1 262-486 limits assumed): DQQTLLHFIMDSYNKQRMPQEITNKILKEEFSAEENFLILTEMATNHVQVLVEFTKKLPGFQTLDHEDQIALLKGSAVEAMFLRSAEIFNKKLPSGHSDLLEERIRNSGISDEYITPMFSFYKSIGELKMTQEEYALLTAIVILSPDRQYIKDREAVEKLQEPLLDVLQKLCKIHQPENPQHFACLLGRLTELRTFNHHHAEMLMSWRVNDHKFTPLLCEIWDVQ
Experiment: Gal4/hFXR fusion protein agonist activity in human 293 cells (luciferase reporter)

Row | pEC50 | SMILES
1 | 5.48 | CC(C)OC(=O)C1CN(C(=O)C2CCOCC2)CC(C)(C)c2cc(C#N)[nH]c21 (stereo not drawn) [isopropyl 2-cyano-4,4-dimethyl-6-(tetrahydro-2H-pyran-4-ylcarbonyl)-1,4,5,6,7,8-hexahydropyrrolo[2,3-d]azepine-8-carboxylate]
2 | 6.55 | CC(C)OC(=O)C1CN(C(=O)c2ccc(F)c(F)c2)CC(C)(C)c2cc(C#N)[nH]c21 (stereo not drawn) [isopropyl 2-cyano-6-(3,4-difluorobenzoyl)-4,4-dimethyl-1,4,5,6,7,8-hexahydropyrrolo[2,3-d]azepine-8-carboxylate]
3 | 5.89 | CC(C)OC(=O)C1CN(C(=O)c2cccc(F)c2)CC(C)(C)c2cc(C#N)[nH]c21 (stereo not drawn) [isopropyl 2-cyano-6-(3-fluorobenzoyl)-4,4-dimethyl-1,4,5,6,7,8-hexahydropyrrolo[2,3-d]azepine-8-carboxylate]
4 | 6.19 | CC(C)OC(=O)C1CN(C(=O)c2ccc(F)cc2)CC(C)(C)c2cc(C#N)[nH]c21 (stereo not drawn) [isopropyl 2-cyano-6-(4-fluorobenzoyl)-4,4-dimethyl-1,4,5,6,7,8-hexahydropyrrolo[2,3-d]azepine-8-carboxylate]

Continued, molecule first:

Row | SMILES | pEC50
5 | CC(C)OC(=O)C1CN(C(=O)c2cccc(C(F)(F)F)c2)CC(C)(C)c2cc(C#N)[nH]c21 (stereo not drawn) [iso-propyl 2-cyano-4,4-dimethyl-6-[3-(trifluoromethyl)benzoyl]-1,4,5,6,7,8-hexahydropyrrolo[2,3-d]azepine-8-carboxylate] | 5.57
6 | CC(C)OC(=O)C1CN(C(=O)c2ccc(C#N)cc2)CC(C)(C)c2cc(C#N)[nH]c21 (stereo not drawn) [iso-propyl 2-cyano-6-(4-cyanobenzoyl)-4,4-dimethyl-1,4,5,6,7,8-hexahydropyrrolo[2,3-d]azepine-8-carboxylate] | 5.24
7 | CC(C)OC(=O)C1CN(C(=O)C2CCCCC2)CC(C)(C)c2cc(C#N)[nH]c21 (stereo not drawn) [iso-propyl 2-cyano-6-(cyclohexylcarbonyl)-4,4-dimethyl-1,4,5,6,7,8-hexahydropyrrolo[2,3-d]azepine-8-carboxylate] | 5.72
8 | CC(C)OC(=O)C1CN(C(=O)c2cccc(Cl)c2)CC(C)(C)c2cc(C#N)[nH]c21 (stereo not drawn) [iso-propyl 6-(3-chlorobenzoyl)-2-cyano-4,4-dimethyl-1,4,5,6,7,8-hexahydropyrrolo[2,3-d]azepine-8-carboxylate] | 5.89
9 | CC(C)OC(=O)C1CN(C(=O)c2ccc(Cl)cc2)CC(C)(C)c2cc(C#N)[nH]c21 (stereo not drawn) [iso-propyl 6-(4-chlorobenzoyl)-2-cyano-4,4-dimethyl-1,4,5,6,7,8-hexahydropyrrolo[2,3-d]azepine-8-carboxylate] | 5.39
